Consider 17 compounds from patent publication US20210069230A1, “SYNERGISTIC DRUG COMBINATIONS PREDICTED FROM GENOMIC FEATURES AND SINGLE-AGENT RESPONSE PROFILES” (THE BROAD INSTITUTE, INC., priority 2018, published 2021).

Read-outs that look alike come from different tables or passages of the source.

In data set [1] the test system is WM2664 cells overexpressing ABCB1. In words: Lentiviral ORF overexpression, compound sensitivity (CellTiter-Glo, GR). It is filed as cell-based. As to conditions: 72 hours. The protocol:
(§1) Cell lines were taken from viably frozen stocks of the same original provenance as for CTRP and DepMap data, with identity confirmed by SNP-based DNA fingerprinting as described previously (12, 13, 39). Cell lines were propagated using the same media and culture conditions as for CTRPv2.0 experiments. […] For live-cell imaging, cells were plated into clear-bottom plates (Corning) and imaged on an IncuCyte S3 throughout the course of the experiment. For CellTiter-Glo experiments, the initial viability of a subset of plated cells was established at the same time as compound addition using CellTiter-Glo as described previously (24). […] DMSO- and D0-normalized concentration-response curves were generated using four-parameter nonlinear regression using the drc package in R (40). Biphasic curves were also fit and prioritized relative to standard four-parameter curves where appropriate using the BIC (Bayesian information criteria) metric. […] General-purpose optimization (Nelder-Mean algorithm) was used for single-agent fits, and the “model” option was used to predict variance. Overall significance was assessed using the bootstrapped meanR test (n=1000 iterations), and per-concentration significance using maxR, as described by the package authors.
(§2) Infection and selection were carried out according to GPP Viral Infection protocols, followed by cell seeding in 384-well plates for compound treatment or harvesting for Western blotting as described above.
(§3) Parental cell lines were virally transduced with cDNAs that constitutively overexpressed BCL2L1, AIFM2, or MGLL (in G402 and CJM cells); ABCB1 or MGMT (in WM2664 cells); SLC7A11 (in BT12 and G402 cells); MCL1 (in HCC1500 cells); or IRS2 (in T47D cells) and subsequently drug sensitivity was measured. To account for potential differences in growth rates and to distinguish between cytostatic and cytotoxic drug responses, the normalized growth rate inhibition (GR) metric was used to assess cell viability (FIG. 3A) (18).
A general note: ATP-based viability assays read luminescence as a measure of living cells.

The subject of a further data set is type IIA topoisomerases. The note with it: cited from earlier work.
In data set [2] the test system is G402, G402-MGLL and KMRC3 cells. The data set can be described thus: Chromatin-modifying compounds and GSK-J4 analogues with MGLL overexpression or JZL184 co-treatment. It counts as cell-based. The note with it: for effect of JZL184 co-treatment on sensitivity: cells expressing MGLL. As to the method:
as §1
To assess whether MGLL could augment sensitivity to other inhibitors of chromatin modifying enzymes, a panel of other small molecules annotated to inhibit chromatin-related processes, targeting other KDM proteins, histone deacetylases (HDACs), and histone methyltransferases (e.g., EZH2, DOT1L) was tested. […] The effects of a number of GSK-J4 analogues (FIG. 7B) were also tested.

The conditions of data set [3]: cited from earlier work.
A further data set has as its system KDM6 proteins. The note with it: cited from earlier work.
Data set [4] relates to cell lines with high expression of the nominated protein. The data set can be described thus: 72-hour co-treatment of index compounds with co-target inhibitors. It counts as cell-based. The note with it: single agent. As to the method: GAPDH was used as a loading control.
as §1

The target of data set [5] is Monoacylglycerol lipase (MAGL) (Mus musculus, UniProt O35678). As to conditions: dose of 16 mg/kg; cited from earlier work.
Another data set deals with 242 cell lines in CTRPv1. The note with it: JZL184 alone; cited from earlier work.
For another data set, the system named is 27 cell lines. The data set can be described thus: GSK-J4 with or without JZL184 in 27 cell lines (CellTiter-Glo). It counts as cell-based. As to conditions: individual validation experiments or the pooled PRISM assay. As to the method: as §1
The next data set concerns the target MGLL (Homo sapiens, UniProt Q99685). In words: Recombinant protein/mass spec assay of MGLL-mediated modification. It counts as biochemical. An excerpt: The GSK-J4-modifying impact of MGLL is examined further via a recombinant protein/mass spec assay.
Another data set has as its system SIMA cell line. The data set can be described thus: KX2-391 response versus ABCB1 expression and activity (elacridar co-treatment). It counts as cell-based. An excerpt: FIGS. 14A to 14S present supporting data for co-inhibition experiments across additional compounds and cellular models, further to FIG. 3 above. […] FIG. 14R presents dependency data from the DepMap portal (www.depmap.org) for BCL2L1 as a function of BCL2L1 expression (blue to red) and measured sensitivity (GR50) to the BCL2L1 inhibitor WEHI-539. FIG. 14S presents dependency data from the DepMap portal (www.depmap.org) for MCL1 as a function of […] (blue to red) and measured sensitivity (GR50) to the MCL1 inhibitor S63845.
The instant approach can therefore be applied and extended in a number of ways. First, it can be used to identify potential resistance mechanisms that may contribute to relapse in initially responsive settings. Second, it can be used to prioritize combinations for increased initial efficacy if the co-target biomarker is already present, or to de-prioritize single-agent treatment where it is likely to be less efficacious, particularly where alternatives might exist. For example, drug efflux pump expression (e.g., of ABCB1, encoding P-glycoprotein) has been observed as a clinical mechanism of resistance to various chemotherapeutics (30). ABCB1 inhibitors were discontinued from clinical development, largely due to challenges with selectivity and on-target toxicity (31). […]

For the next data set, the system named is MEWO cell line. The data set can be described thus: CRISPR-Cas9 knockout of AIFM2, response to compound. It is filed as cell-based. The note with it: four different sgRNAs. The protocol:
(§4) Cas9 stably-infected HEC1A, MEWO, SUIT2, and WM2664 cells and sgRNAs (pXPR_BRD003 vector) targeting AIFM2, IRS2, MGLL, or control guides (non-cutting) were acquired from the GPP (FIG. 23). Cell line identities were confirmed to match parental cells using SNP fingerprinting. Virus was generated and infection carried out as described above. After puromycin selection (3 μg/mL for MEWO, 1.5 μg/mL for WM2664, 2 μg/mL for SUIT2 and HEC1A), cells were seeded in 384-well plates for compound treatment or harvested for Western blotting as described above.
(§5) As small-molecule inhibitors were not available for AIFM2 or IRS2, CRISPR-Cas9 was used to knock out these genes in proficient cell lines.

The test system of data set [6] is BT12 and G402 cells overexpressing SLC7A11. The data set can be described thus: Lentiviral ORF overexpression, compound sensitivity (CellTiter-Glo, GR). It is filed as cell-based. The note with it: 72 hours. As to the method:
as §1, §2, §3

The subject of data set [7] is G402 and CJM cells overexpressing AIFM2. The description is as above. It is filed as cell-based. As to conditions: 72 hours. As to the method:
as §1, §2, §3

Data set [8] concerns WM2664 cells overexpressing MGMT. In words: Lentiviral ORF overexpression, compound sensitivity (live-cell imaging, GR). It is filed as cell-based. As to conditions: 120 hours. As to the method: Cell lines were taken from viably frozen stocks of the same original provenance as for CTRP and DepMap data, with identity confirmed by SNP-based DNA fingerprinting as described previously (12, 13, 39). Cell lines were propagated using the same media and culture conditions as for CTRPv2.0 experiments. […] For live-cell imaging, cells were plated into clear-bottom plates (Corning) and imaged on an IncuCyte S3 throughout the course of the experiment. For CellTiter-Glo experiments, the initial viability of a subset of plated cells was established at the same time as compound addition using CellTiter-Glo as described previously (24). […] DMSO- and D0-normalized concentration-response curves were generated using four-parameter nonlinear regression using the drc package in R (40). […] Overall significance was assessed using the bootstrapped meanR test (n=1000 iterations), and per-concentration significance using maxR, as described by the package authors. […]
Parental cell lines were virally transduced with cDNAs that constitutively overexpressed BCL2L1, AIFM2, or MGLL (in G402 and CJM cells); ABCB1 or MGMT (in WM2664 cells); SLC7A11 (in BT12 and G402 cells); MCL1 (in HCC1500 cells); or IRS2 (in T47D cells) and subsequently drug sensitivity was measured. […]

Data set [9] concerns HCC1500 cells overexpressing MCL1. In words: Lentiviral ORF overexpression, compound sensitivity (CellTiter-Glo, GR). It is filed as cell-based. The note with it: 72 hours. As to the method:
as §1, §2, §3

Another data set concerns WM2664 cells. The data set can be described thus: CRISPR-Cas9 knockdown of IRS2, response to compound. It is filed as cell-based. As to the method:
as §4, §5

Monoacylglycerol lipase (MAGL), sequence (O35678 whole entry): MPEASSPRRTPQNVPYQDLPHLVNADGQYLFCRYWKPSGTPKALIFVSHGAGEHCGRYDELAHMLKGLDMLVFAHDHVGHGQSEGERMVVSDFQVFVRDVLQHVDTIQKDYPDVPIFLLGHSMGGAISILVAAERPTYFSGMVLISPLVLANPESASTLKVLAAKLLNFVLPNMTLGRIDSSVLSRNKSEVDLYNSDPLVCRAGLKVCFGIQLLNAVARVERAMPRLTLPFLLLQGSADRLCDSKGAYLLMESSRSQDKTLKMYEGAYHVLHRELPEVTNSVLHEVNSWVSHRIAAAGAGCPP
MGLL, sequence (Q99685 whole entry): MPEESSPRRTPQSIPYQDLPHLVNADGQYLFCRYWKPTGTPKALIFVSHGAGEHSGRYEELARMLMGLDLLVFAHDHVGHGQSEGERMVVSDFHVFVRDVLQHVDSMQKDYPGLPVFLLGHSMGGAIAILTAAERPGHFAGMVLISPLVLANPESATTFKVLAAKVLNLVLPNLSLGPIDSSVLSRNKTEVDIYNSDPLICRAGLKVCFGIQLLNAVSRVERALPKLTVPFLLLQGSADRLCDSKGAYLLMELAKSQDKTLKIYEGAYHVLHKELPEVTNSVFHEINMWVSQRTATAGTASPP

On to `CC[C@@H]1C(=O)N(C)c2cnc(Nc3ccc(C(=O)NC4CCN(C)CC4)cc3OC)nc2N1C1CCCC1` [BI-2536], for which the “resistance (GR50 shift) conferred by ABCB1 overexpression” value in data set [1] was found to be 40 fold.

`O=C(O)c1cn(C2CC2)c2cc(N3CCNCC3)c(F)cc2c1=O` [Ciprofloxacin]: the “targets prokaryotes more than eukaryotic topo IIs” value in the data set with type IIA topoisomerases was “in excess of a thousandfold”.

Regarding `O=C(O)CCNc1cc(N2CCc3ccccc3CC2)nc(-c2ccccn2)n1` [GSK-J1], in data set [2], the “concentrations at which toxicity was shown” value is greater than 20 µM and the “effect of MGLL overexpression or JZL184 co-treatment/inhibition on toxicity” value was “not affected”. Also, the cellular permeability entry in [3] was “cell-impermeable”.

Consider `O=C(O)CCNc1cc(N2CCc3ccccc3CC2)nc(-c2cccnc2)n1` [GSK-J2], for which, in the data set with KDM6 proteins, the “activity against KDM6” value is “inactive”. Further, in data set [2], the “effect of MGLL overexpression or JZL184 co-treatment/inhibition on toxicity” value is recorded as “not affected”. In addition, in [2] (at 80 μM), the toxicity is less than 30%.

`CCOC(=O)CCNc1cc(N2CCc3ccccc3CC2)nc(-c2cccnc2)n1` [GSK-J5]: in data set [2], the “effect of MGLL overexpression on toxicity” value is listed as “reduced toxicity”, the “potency relative to GSK-J4” value is recorded as “much less potent” and the “effect of JZL184 co-treatment on sensitivity” value is “sensitized by JZL184”.

Regarding `O=C(Oc1ccc([N+](=O)[O-])cc1)N1CCC(C(O)(c2ccc3c(c2)OCO3)c2ccc3c(c2)OCO3)CC1` [JZL184, 4-nitrophenyl 4-(dibenzo[d][1,3]dioxol-5-yl(hydroxy)methyl)piperidine-1-carboxylate], the “growth impact of combination partner on its own” value in [4] is “only modest growth impact”. In addition, in data set [5], the “blockade of MAGL” value was “near-complete blockade”. For the same compound, in the data set on 242 cell lines in CTRPv1, the dose-dependent toxicity result was “did not demonstrate dose-dependent toxicity”. Besides, the “effects of JZL184 alone” value in the data set with 27 cell lines is “very modest effects”.

With `OCCCNc1cc(N2CCc3ccccc3CC2)nc(-c2ccccn2)n1` [KDOBA67], the “toxicity relative to GSK-J4” value in data set [2] (MGLL-deficient cell lines) is listed as “equivalent toxicity”. The “effect of JZL184 co-treatment on sensitivity” value in data set [2] is recorded as “could not be further sensitized”. Besides, the “potency relative to GSK-J4” value in data set [2] (resistant lines that expressed MGLL either endogenously or ectopically) is “more potent”. Besides, the cellular permeability result in data set [3] is reported as “cell-permeable”. At MGLL, the MGLL-mediated modification result is recorded as “no modification”.

With `O=C(Cc1ccc(-c2ccc(OCCN3CCOCC3)cc2)cn1)NCc1ccccc1` [KX2-391], the “relation of response to ABCB1” value in the data set on SIMA cell line is listed as “not correlated with ABCB1 expression or affected by the presence of active ABCB1 protein”.

Take `Cc1onc(C(=O)N2CCN(C(c3ccc(Cl)cc3)c3ccc(Cl)cc3)CC2)c1[N+](=O)[O-]` [ML210]: in the data set on MEWO cell line, the “effect of targeting AIFM2 with sgRNAs on response” value is listed as “sensitization”. The “resistance (GR50 shift) conferred by SLC7A11 overexpression” value in [6] stood at 8 fold. For the same compound, in data set [7], the “resistance (GR50 shift) conferred by AIFM2 overexpression” value is reported as greater than 500 fold.

Take `O=C1C2CCN(CC2)C1(CO)CO` [PRIMA-1]: in data set [6], the “resistance (GR50 shift) conferred by SLC7A11 overexpression” value is 20 fold. For the same compound, the “resistance (GR50 shift) conferred by AIFM2 overexpression” value in data set [7] is on record as “approximately threefold”.

As to `CC(C)(C)c1cnc(CSc2cnc(NC(=O)C3CCNCC3)s2)o1` [SNS-032], the “resistance (GR50 shift) conferred by ABCB1 overexpression” value in data set [1] is 25 fold.

For the compound `O=NN(CCCl)C(=O)NCCCl` [carmustine], the “resistance (GR50 shift) conferred by MGMT overexpression” value in data set [8] is 4 fold.

Take `CCOc1ccccc1-n1c(C(C)N2CCN(C(=O)COc3ccc(Cl)cc3)CC2)nc2ccccc2c1=O` (stereo not drawn) [erastin]: the “resistance (GR50 shift) conferred by SLC7A11 overexpression” value in data set [6] was 30 fold.

As to `CC1(C)CCC(c2ccc(Cl)cc2)=C(CN2CCN(c3ccc(C(=O)NS(=O)(=O)c4ccc(N[C@H](CCN5CCOCC5)CSc5ccccc5)c(S(=O)(=O)C(F)(F)F)c4)cc3)CC2)C1` [navitoclax], the “resistance (GR50 shift) conferred by MCL1 overexpression” value in data set [9] was found to be 100 fold.

As for `CC(=O)O[C@H]1C(=O)[C@@]2(C)[C@H]([C@H](OC(=O)c3ccccc3)[C@]3(O)C[C@H](OC(=O)[C@H](O)[C@@H](NC(=O)c4ccccc4)c4ccccc4)C(C)=C1C3(C)C)[C@]1(OC(C)=O)CO[C@@H]1C[C@@H]2O` [paclitaxel], in data set [1], the “resistance (GR50 shift) conferred by ABCB1 overexpression” value amounted to 50 fold.

For `CS(=O)(=O)N1CCN(Cc2cc3nc(-c4cccc5[nH]ncc45)nc(N4CCOCC4)c3s2)CC1` [pictilisib], the “effect of knockdown of IRS2 on response” value with WM2664 cells was “modest but consistent sensitization”.

With `CC(C)=CC[C@@H](O)C1=CC(=O)c2c(O)ccc(O)c2C1=O` [shikonin], in data set [6], the “resistance (GR50 shift) conferred by SLC7A11 overexpression” value is 10 fold.
